Values joined by “and” are separate entries in the source; they are usually repeats but may differ in a detail not shown here. Equal entries are not always repeated. Where two headings read alike, the source gives them in different places. Numbered stars: 1 amine (or outer) side, 2 acyl side, 3 side chain; on linkers, the order of the positions; unused ones are H or OH. Peptide text beside a SMILES is read from it. CO = O=C([*:1])[*:2]
How the values were obtained:
[1] = tested on: B. gingivalis N-CBz-Gly-Gly-Arg peptidase; assay: Effect of inhibitors and enhancers on B. gingivalis peptidase activity; type: biochemical, Bacteroides gingivalis; conditions: for Inhibition of B. gingivalis enzyme activity by metals: high concentrations
C. ochracea = type: biochemical
Experimental: (§1) The enzyme activity was measured by the chromogenic properties of N-CBz-glycyl-glycyl-L-arginine-β-naphthylamide which upon hydrolysis gives a visible color. The aminopeptidase activities listed in the table reflect the nanomoles of β-naphthylamine liberated after 60 minutes under the conditions described below.
(§2) After mixing, the solution is incubated for 1 hour at 37° C. and then 0.4 ml of a solution of stabilized diazonium salt, Fast Garnet GBC (0.5 mg/ml) in a 1M acetic acid buffer (pH 4.2), containing 10% Tween 20 was added to the mixture. After standing for 15 minutes at room temperature, the color reaction can be read manually by comparison with standard solutions or the absorbancy can be determined using a spectrophotometer at 525 nm. The reaction mixture without enzyme solution is used as a control.

[2] = tested on: Capnocytophaga gingivalis; type: biochemical
Experimental: as §1, §2

Capnocytophaga sp. = type: biochemical
Experimental: as §1, §2

B. corporis = assay: Aminopeptidase activity on β-naphthylamide substrates; type: biochemical
Experimental: as §1, §2

B. denticola = assay: as above; type: biochemical
Experimental: as §1, §2

B. intermedius = assay: as above; type: biochemical
Experimental: as §1, §2

B. melaninogenicus = assay: as above; type: biochemical
Experimental: as §1, §2

C. sputigena = assay: as above; type: biochemical
Experimental: as §1, §2

"Anaerobic vibrio" = type: biochemical
Experimental: as §1, §2
(§3) The enzyme activity and the aminopeptidase activities were determined in the manner described above in regard to Table I.

A. seminis = type: biochemical
Experimental: as §1, §2, §3

A. viscosus = type: biochemical
Experimental: as §1, §2, §3

Actinomyces israeli = type: biochemical
Experimental: as §1, §2, §3

Campylobacter sputorum = type: biochemical
Experimental: as §1, §2, §3

Eikenella corrodens = type: biochemical
Experimental: as §1, §2, §3

Fusobacterium nucleatum = type: biochemical
Experimental: as §1, §2, §3

S. mutans = type: biochemical
Experimental: as §1, §2, §3

V. parvula = type: biochemical
Experimental: as §1, §2, §3

Veillonella sp. = type: biochemical
Experimental: as §1, §2, §3

A. equuli = assay: Aminopeptidase activity on β-naphthylamide substrates; type: biochemical
Experimental: as §1, §2, §3

A. suis = assay: as above; type: biochemical
Experimental: as §1, §2, §3

F. periodonticum = assay: as above; type: biochemical
Experimental: as §1, §2, §3

Haemophilus aphrophilus = assay: as above; type: biochemical
Experimental: as §1, §2, §3

L. fermentum = assay: as above; type: biochemical
Experimental: as §1, §2, §3

Lactobacillus casei = assay: as above; type: biochemical
Experimental: as §1, §2, §3

S. salivarius = assay: as above; type: biochemical
Experimental: as §1, §2, §3

Veillonella alcalesens = assay: as above; type: biochemical
Experimental: as §1, §2, §3

B. levii = type: biochemical
Experimental: as §1, §2

B. mel. ss. intermedius = type: biochemical
Experimental: as §1, §2

S. sanguis = type: biochemical
Experimental: as §1, §2, §3

Bacteroides gingivalis = type: biochemical
Experimental: as §1, §2

[3] = strain ATCC 33547, β-naphthylamine liberated after 60 minutes, 37° C.
[4] = strain ATCC 33185, β-naphthylamine liberated after 60 minutes, 37° C.
[5] = strain ATCC 25611, β-naphthylamine liberated after 60 minutes, 37° C.
[6] = strain ATCC 25845, β-naphthylamine liberated after 60 minutes, 37° C.
[7] = strain ATCC 33123, β-naphthylamine liberated after 60 minutes, 37° C.
[8] = strain D31A-24, β-naphthylamine liberated after 60 minutes, 37° C.
[9] = strain ATCC 19392, β-naphthylamine liberated after 60 minutes, 37° C.
[10] = strain ATCC 15557, β-naphthylamine liberated after 60 minutes, 37° C.
[11] = strain EK1-15, β-naphthylamine liberated after 60 minutes, 37° C.
[12] = strain ATCC 13252, β-naphthylamine liberated after 60 minutes, 37° C.
[13] = strain ATCC 19415, β-naphthylamine liberated after 60 minutes, 37° C.
[14] = strain NCTC 5908, β-naphthylamine liberated after 60 minutes, 37° C.
[15] = strain ATCC 11581, β-naphthylamine liberated after 60 minutes, 37° C.
[16] = strain ATCC 7469, β-naphthylamine liberated after 60 minutes, 37° C.
[17] = strain ATCC 11578, β-naphthylamine liberated after 60 minutes, 37° C.
[18] = strain ATCC 11582, β-naphthylamine liberated after 60 minutes, 37° C.
[19] = strain ATCC 9759, β-naphthylamine liberated after 60 minutes, 37° C.
[20] = strain ATCC 25975, β-naphthylamine liberated after 60 minutes, 37° C.
[21] = strain ATCC 11748, β-naphthylamine liberated after 60 minutes, 37° C.

CC(C)[C@H](NC(=O)[C@H](CCCNC(=N)N)NC(=O)N[C@@H](Cc1ccccc1)C(=O)O)C(=O)N[C@H](C=O)CCCNC(=N)N [antipain] ({Phe-CO}-Arg-Val-Arg-aldehyde)
Inhibition of B. gingivalis N-CBz-glycyl-glycyl-arginylpeptidase enzyme activity [1]: inhibited

O=C(O)c1cc[c]([Hg][Cl])cc1 [p-chloromercuribenzoic acid]
Inhibition of B. gingivalis N-CBz-glycyl-glycyl-arginylpeptidase enzyme activity [1]: inhibited

C[S+](C)[O-] [DMSO, dimethyl-sulfoxide]
Inhibition of B. gingivalis N-CBz-glycyl-glycyl-arginylpeptidase enzyme activity [1]: inhibited

N=C(N)NCCC[C@H](NC(=O)[C@@H](N)CCCNC(=N)N)C(=O)O [Arg-Arg, Arginyl-arginine] (H-Arg-Arg-OH)
Aminopeptidase activity (C. ochracea): 71
Aminopeptidase activity [2]: 65
Aminopeptidase activity (Capnocytophaga sp.): 0
Aminopeptidase activity (B. corporis; [3]): 4 nmol
Aminopeptidase activity (B. denticola; [4]): 16 nmol
Aminopeptidase activity (B. intermedius; [5]): 15 nmol
Aminopeptidase activity (B. melaninogenicus; [6]): 24 nmol
Aminopeptidase activity (C. sputigena; [7]): 18 nmol
Aminopeptidase activity ("Anaerobic vibrio"): 0
Aminopeptidase activity (A. seminis): 0
Aminopeptidase activity (A. viscosus): 0
Aminopeptidase activity (Actinomyces israeli): 0
Aminopeptidase activity (Campylobacter sputorum): 1
Aminopeptidase activity (Eikenella corrodens): 0
Aminopeptidase activity (Fusobacterium nucleatum): 1
Aminopeptidase activity (Fusobacterium nucleatum; [8]): 2 nmol
Aminopeptidase activity (S. mutans): 1
Aminopeptidase activity (V. parvula): 0
Aminopeptidase activity (Veillonella sp.): 0
Aminopeptidase activity (A. equuli; [9]): 0 nmol
Aminopeptidase activity (A. suis; [10]): 0 nmol
Aminopeptidase activity (F. periodonticum; [11]): 1 nmol
Aminopeptidase activity (Haemophilus aphrophilus; [12]): 1 nmol
Aminopeptidase activity (Haemophilus aphrophilus; [13]): 1 nmol
Aminopeptidase activity (Haemophilus aphrophilus; [14]): 0 nmol
Aminopeptidase activity (L. fermentum; [15]): 0 nmol
Aminopeptidase activity (Lactobacillus casei; [16]): 1 nmol
Aminopeptidase activity (Lactobacillus casei; [17]): 1 nmol
Aminopeptidase activity (Lactobacillus casei; [18]): 0 nmol
Aminopeptidase activity (S. salivarius; [19]): 24 nmol
Aminopeptidase activity (S. salivarius; [20]): 15 nmol
Aminopeptidase activity (Veillonella alcalesens; [21]): 0 nmol

[Cd] [cadmium]
Sensitivity of B. gingivalis enzyme activity to heavy metal ions [1]: sensitive
Inhibition of B. gingivalis enzyme activity by metals [1]: inhibited

CC(=O)N[C@@H](CC(C)C)C(=O)N[C@@H](CC(C)C)C(=O)N[C@H](C=O)CCCNC(=N)N [leupeptin]
Inhibition of B. gingivalis N-CBz-glycyl-glycyl-arginylpeptidase enzyme activity [1]: inhibited

O=S(=O)(F)Cc1ccccc1 [phenylmethylsulfonylfluoride]
Inhibition of B. gingivalis N-CBz-glycyl-glycyl-arginylpeptidase enzyme activity [1]: inhibited

[Co] [cobalt]
Inhibition of B. gingivalis enzyme activity by metals [1]: inhibited

[Zn] [zinc]
Inhibition of B. gingivalis enzyme activity by metals [1]: inhibited

[Cu] [copper]
Sensitivity of B. gingivalis enzyme activity to heavy metal ions [1]: sensitive
Inhibition of B. gingivalis enzyme activity by metals [1]: inhibited

NCC(=O)N1CCC[C@H]1C(=O)O [Gly-Pro, Glycyl-proline] (H-Gly-Pro-OH)
Aminopeptidase activity (B. levii): 22 and 17
Aminopeptidase activity (B. mel. ss. intermedius): 15 and 22 and 27
Aminopeptidase activity (C. ochracea): 11
Aminopeptidase activity [2]: 19
Aminopeptidase activity (Capnocytophaga sp.): 2
Aminopeptidase activity (B. corporis): 54
Aminopeptidase activity (B. denticola): 17
Aminopeptidase activity (B. intermedius): 10
Aminopeptidase activity (B. melaninogenicus): 26
Aminopeptidase activity (C. sputigena): 16
Aminopeptidase activity ("Anaerobic vibrio"): 0
Aminopeptidase activity (A. seminis): 0
Aminopeptidase activity (A. viscosus): 0
Aminopeptidase activity (Actinomyces israeli): 0
Aminopeptidase activity (Campylobacter sputorum): 1
Aminopeptidase activity (Eikenella corrodens): 0
Aminopeptidase activity (Fusobacterium nucleatum): 0
Aminopeptidase activity (Fusobacterium nucleatum; [8]): 0 nmol
Aminopeptidase activity (S. mutans): 22
Aminopeptidase activity (S. sanguis): 75 and 109
Aminopeptidase activity (Veillonella sp.): 0
Aminopeptidase activity (A. equuli): 0
Aminopeptidase activity (A. suis): 0
Aminopeptidase activity (F. periodonticum): 1
Aminopeptidase activity (L. fermentum): 5
Aminopeptidase activity (S. salivarius): 105 and 90
Aminopeptidase activity (Veillonella alcalesens): 0

C[C@H](NC(=O)[C@@H](N)CCCCN)C(=O)O [Lys-Ala, Lysyl-alanine] (H-Lys-Ala-OH)
Aminopeptidase activity (B. levii): 45 and 48
Aminopeptidase activity (Bacteroides gingivalis): 78 and 77 and 50 and 63 and 46 and 43
Aminopeptidase activity (C. ochracea): 50
Aminopeptidase activity [2]: 54
Aminopeptidase activity (Capnocytophaga sp.): 14
Aminopeptidase activity (B. corporis): 68
Aminopeptidase activity (B. denticola): 89
Aminopeptidase activity (B. intermedius): 50
Aminopeptidase activity (B. melaninogenicus): 78
Aminopeptidase activity (C. sputigena): 36
Aminopeptidase activity ("Anaerobic vibrio"): 0
Aminopeptidase activity (A. seminis): 0
Aminopeptidase activity (A. viscosus): 0
Aminopeptidase activity (Actinomyces israeli): 0
Aminopeptidase activity (Campylobacter sputorum): 0
Aminopeptidase activity (Eikenella corrodens): 0
Aminopeptidase activity (Fusobacterium nucleatum; [8]): 0 nmol
Aminopeptidase activity (S. mutans): 2
Aminopeptidase activity (V. parvula): 0
Aminopeptidase activity (Veillonella sp.): 0
Aminopeptidase activity (A. equuli): 0
Aminopeptidase activity (A. suis): 0
Aminopeptidase activity (F. periodonticum): 0
Aminopeptidase activity (Haemophilus aphrophilus): 0
Aminopeptidase activity (L. fermentum): 2
Aminopeptidase activity (Lactobacillus casei): 0
Aminopeptidase activity (Veillonella alcalesens): 0

mercury
Sensitivity of B. gingivalis enzyme activity to heavy metal ions [1]: sensitive
Inhibition of B. gingivalis enzyme activity by metals [1]: inhibited

N=C(N)NCCC[C@H](NC(=O)CN)C(=O)O [Gly-Arg, Glycyl-arginine] (H-Gly-Arg-OH)
Aminopeptidase activity (B. mel. ss. intermedius): 13 and 9
Aminopeptidase activity (C. ochracea): 11
Aminopeptidase activity [2]: 6
Aminopeptidase activity (Capnocytophaga sp.): 20
Aminopeptidase activity (B. corporis; [3]): 0 nmol
Aminopeptidase activity (B. denticola; [4]): 4 nmol
Aminopeptidase activity (B. intermedius; [5]): 22 nmol
Aminopeptidase activity (B. melaninogenicus; [6]): 4 nmol
Aminopeptidase activity (C. sputigena; [7]): 8 nmol
Aminopeptidase activity ("Anaerobic vibrio"): 0
Aminopeptidase activity (A. seminis): 0
Aminopeptidase activity (Actinomyces israeli): 0
Aminopeptidase activity (Campylobacter sputorum): 0
Aminopeptidase activity (Eikenella corrodens): 2
Aminopeptidase activity (Fusobacterium nucleatum): 0
Aminopeptidase activity (Fusobacterium nucleatum; [8]): 1 nmol
Aminopeptidase activity (S. mutans): 0
Aminopeptidase activity (S. sanguis): 3
Aminopeptidase activity (V. parvula): 0
Aminopeptidase activity (Veillonella sp.): 0
Aminopeptidase activity (A. equuli; [9]): 0 nmol
Aminopeptidase activity (A. suis; [10]): 0 nmol
Aminopeptidase activity (F. periodonticum; [11]): 0 nmol
Aminopeptidase activity (Haemophilus aphrophilus; [12]): 0 nmol
Aminopeptidase activity (Haemophilus aphrophilus; [13]): 0 nmol
Aminopeptidase activity (Haemophilus aphrophilus; [14]): 0 nmol
Aminopeptidase activity (L. fermentum; [15]): 0 nmol
Aminopeptidase activity (Lactobacillus casei; [16]): 0 nmol
Aminopeptidase activity (Lactobacillus casei; [17]): 0 nmol
Aminopeptidase activity (Lactobacillus casei; [18]): 1 nmol
Aminopeptidase activity (S. salivarius; [19]): 0 nmol
Aminopeptidase activity (S. salivarius; [20]): 0 nmol
Aminopeptidase activity (Veillonella alcalesens; [21]): 0 nmol
